Reference: publication PMC5908160, “Inhibition of sperm motility in male macaques with EP055, a potential non-hormonal male contraceptive” (PLoS ONE, 2018)

System: rhesus macaque (Macaca mulatta) sperm
Assay: Sperm motility in rhesus males after i.v. infusion of EP055
Assay type: in vivo
Source text: Semen was collected by direct penile stimulation with a P-T Electronics Model 303 PTE 110 Volt AC stimulator equipped with electrocardiogram pad electrodes (10–35 V, 20 ms duration, 18 pulses/sec) as previously described. Semen was collected weekly for 3 weeks to establish baseline parameters for each male. Samples were inspected visually to determine sperm motility and suitability for the study. Sperm motility data from male 28106 presented in S1 Table is representative of pre-treatment samples. Immediately after collection, the seminal plug was separated from the liquefied fraction, placed into a cryovial, flash frozen in liquid nitrogen, and stored at -80C until evaluation for drug levels. Spermatozoa were prepared by centrifugation (7 min, 200 g) of the liquid portion of the ejaculate and resuspending the sperm pellet in TALP-HEPES medium containing 0.3% bovine serum albumin at 37°C. An aliquot was taken to determine concentration using a hemocytometer, percent motility and forward progression as previously described. Baseline semen samples were collected from each male twice during the week prior to treatment. Semen was collected from each male 6–8 hr, 28–30 hr, and 78 hr post-infusion of low dose EP055 (75–80 mg/kg body weight) intravenously. After a one-week recovery period, a baseline semen sample was obtained, and the following week semen samples were collected as described above after an intravenous infusion of high dose EP055 (125–130 mg/kg).
Sperm were diluted in TALP-HEPES medium containing 0.3% bovine serum albumin to achieve 50-100 sperm per field. Videos were taken using an iPhone 6s Plus positioned 12 inches from a Dell model E170Sc 17-inch LCD monitor (1280 x 1024 pixels at 60 Hz, 0.264 mm) attached to an Olympus CK40 inverted microscope using 20x magnification (10x objective). The video camera collected images at a resolution of 1080 x 1920 pixels at 30 frames per second and 401 ppi with a typical contrast ratio of 1300:1 for at least 8 seconds. The pixel size was 1.2 microns and the videos in .mp4 or .mov format. Videos were converted to .avi format using Any Video Converter (version 6.06, http://www.anvsoft.com/any-video-converter-free, Ultimate Media Solutions, AnvSoft Inc). These files were uncompressed using VirtualDub (version 1.10.2, http://www.virtualdub.org/).
Images were analyzed using the MTrackJ plug in (version 1.5.1, https://imagescience.org/meijering/software/mtrackj/) for ImageJ (1.51K, https://fiji.sc/). Briefly, files were imported as uncompressed .avi files, converted to greyscale and saved as .TIFF files. Each image was calibrated by measuring a representative sperm head (acrosomal apex to midpiece) using the Straight Edge Tool, using 5.18 microns as the standard length of a Macaca mulatta sperm head. Approximately 50 sperm per video were manually tracked for the entire length of the track and the mean curvilinear velocity of each track calculated using the MEASURE function. Tracks used in the final analysis were a minimum of 0.4 seconds.
Prior to infusion of EP055, each male was sedated with ketamine by the surgical staff at ONPRC and transported to the operating room. After positioning in dorsal recumbency, the male was intubated and placed under inhalant (isoflurane) anesthesia. Bilateral intravenous catheters were placed in cephalic veins, one for infusion and one for back-up. A percutaneous arterial line was placed in the right femoral artery for direct blood pressure measurement. Invasive blood pressure, heart rate, SpO2, and respirations were monitored by the surgical staff throughout the procedure. Initially, the low doses of EP055 in 5% DMSO-PBS 7.6 was infused by i.v. at 75-80 mg/kg, using a Medfusion 3500 pump (Smiths Medical, St. Paul, MN), and was started at a low flow rate (0.6mg/kg/min). In 3 of 4 males, a 5-10% increase in blood pressure and heart rate were noted within the first 2-3 minutes of infusion of EP055. […]

[1] = high dose 125–130 mg/kg, post-infusion
[2] = male 25854, high dose 125–130 mg/kg, 6 hrs post-iv
[3] = male 25854, high dose 125–130 mg/kg, 30 hrs post-iv
[4] = male 25854, high dose 125–130 mg/kg, 78 hrs post-iv
[5] = male 25854, high dose 125–130 mg/kg, 318 hrs post-iv
[6] = male 25854, high dose 125–130 mg/kg, 390 hrs post-iv
[7] = male 25854, high dose 125–130 mg/kg, 558 hrs post-iv
[8] = male 25854, low dose 75–80 mg/kg, 6 hrs post-iv
[9] = male 25854, low dose 75–80 mg/kg, 30 hrs post-iv
[10] = male 25854, low dose 75–80 mg/kg, 78 hrs post-iv
[11] = male 25854, low dose 75–80 mg/kg, 1206 hrs post-iv
[12] = male 25854, low dose 75–80 mg/kg, 1254 hrs post-iv
[13] = male 28043, high dose 125–130 mg/kg, 6 hrs post-iv
[14] = male 28043, high dose 125–130 mg/kg, 28 hrs post-iv
[15] = male 28043, high dose 125–130 mg/kg, 78 hrs post-iv
[16] = male 28043, high dose 125–130 mg/kg, 360 hrs post-iv
[17] = male 28043, high dose 125–130 mg/kg, 408 hrs post-iv
[18] = male 28043, high dose 125–130 mg/kg, 528 hrs post-iv
[19] = male 28043, low dose 75–80 mg/kg, 6 hrs post-iv
[20] = male 28043, low dose 75–80 mg/kg, 30 hrs post-iv
[21] = male 28043, low dose 75–80 mg/kg, 78 hrs post-iv
[22] = male 28043, low dose 75–80 mg/kg, 480 hrs post-iv
[23] = male 28043, low dose 75–80 mg/kg, 648 hrs post-iv
[24] = male 28106, high dose 125–130 mg/kg, 6 hrs post-iv

SMILES: COC(=O)NNc1nc(Nc2ccc(NC(C)=O)c(O)c2)nc(SCC(=O)O)n1 [EP055]
- normal motility (high dose 125–130 mg/kg, 30 hours post-infusion): no normal motility was observed
- time at which recovery of sperm motility was obvious [1]: ≤ 78 h
- time to full recovery of sperm motility in all animals [1]: ≤ 18 days
- sperm motility (high dose 125–130 mg/kg, within 6 hours post-infusion, mean of 4 animals): approximately 20%
- normal sperm motility (low dose 75–80 mg/kg, by 30 hours post-infusion, mean of 4 animals): below 32%
- F1 [2]: 5%
- F2 [2]: 80%
- Static [2]: 15%
- VCL ± SEM [2]: 104.6 ± 6.9 um/sec
- Clumps [3]: Yes
- F1 [3]: 10%
- F2 [3]: 60%
- Static [3]: 30%
- VCL ± SEM [3]: 120.9 ± 4.8 um/sec
- Clumps [4]: Few
- F1 [4]: 20%
- F2 [4]: 25%
- Static [4]: 55%
- VCL ± SEM [4]: 94.2 ± 5.0 um/sec
- F1 [5]: 20%
- F2 [5]: 20%
- F3+F4 [5]: 10%
- Static [5]: 50%
- F1 [6]: 10%
- F3+F4 [6]: 70%
- Static [6]: 20%
- VCL ± SEM [6]: 93.2 ± 5.0 um/sec
- F1 [7]: 1%
- F3+F4 [7]: 90%
- Static [7]: 9%
- Clumps [8]: Few
- F1 [8]: 10%
- F3+F4 [8]: 70%
- Static [8]: 20%
- Clumps [9]: Fewer
- F1 [9]: 5%
- F3+F4 [9]: 80%
- Static [9]: 15%
- Clumps [10]: Yes
- F1 [10]: <1%
- F3+F4 [10]: 95%
- Static [10]: 5%
- F1 [11]: 2%
- F3+F4 [11]: 83%
- Static [11]: 15%
- F3+F4 [12]: 80%
- Static [12]: 20%
- Clumps [13]: Yes
- F1 [13]: 25%
- F3+F4 [13]: 50%
- Static [13]: 25%
- Clumps [14]: Yes
- F1 [14]: 99%
- F3+F4 [14]: <1%
- VCL ± SEM [14]: 72.1 ± 12.4 um/sec
- Clumps [15]: Few
- F1 [15]: 10%
- F3+F4 [15]: 60%
- Static [15]: 30%
- VCL ± SEM [15]: 117.5 ± 16.3. um/sec
- F1 [16]: 10%
- F3+F4 [16]: 65%
- Static [16]: 25%
- Clumps [17]: Yes
- F1 [17]: 5%
- F3+F4 [17]: 70%
- Static [17]: 25%
- F2 [18]: 5%
- F3+F4 [18]: 80%
- Static [18]: 15%
- VCL ± SEM [18]: 135.0 ± 12.6 um/sec
- Clumps [19]: Few
- F3+F4 [19]: 75%
- Static [19]: 25%
- Clumps [20]: Yes
- F1 [20]: 20%
- F3+F4 [20]: 30%
- Static [20]: 50%
- Clumps [21]: Yes
- F1 [21]: 20%
- F2 [21]: 50%
- Static [21]: 30%
- F3+F4 [22]: 80%
- Static [22]: 20%
- F1 [23]: 5%
- F3+F4 [23]: 80%
- Static [23]: 15%
- Clumps [24]: Yes
- F1 [24]: 55%
